Measurements from patent US12474327B2, “Metabolic profiling for the diagnosis of a subset of idiopathic autism spectrum disorder patients, ADS Phenotype 1” (STALICLA SA, priority 2018, dated 2025).

Key:
[1] = test system: ASD non-Phenotype 1 lymphoblastoid cell lines (LCLs); test: Energy production capacity (NADH, tetrazolium colorimetric assay, Biolog Phenotype Mammalian MicroArrays); format: cell-based, human; settings: for energy production capacity: ASD non-Phenotype 1 LCLs, in presence of D-Glucose
Description: (§1) The data reported in the present patent were generated from lymphoblastoid cell lines (LCLs) generated from lymphocytes from peripheral blood. Tubes containing anticoagulant citrate dextrose (ACD) were used to collect blood samples via venipuncture, in order to ensure that the blood cells remained metabolically active. The tubes were kept at room temperature and processed within 24 hours.
(§2) Cell lines were obtained by immortalization of lymphocytes from blood samples using Epstein-Barr virus. The lymphoblastoid cell lines were harvested in Sigma RPMI-1640 with 75 mL fetal bovine serum from Atlanta Biological (Lawrenceville, GA, USA) and 5 mL L-Glutamine and 5 mL antibiotic/antimycotic from Sigma-Aldrich (St. Louis, MO, USA).
(§3) Energy production of cells was measured using commercially available Phenotype Mammalian MicroArrays (PM-Ms, Biolog, Hayward, CA, USA).
(§4) The compound in each well was designed to be used by the cells, either as the sole energy source or as the metabolic effector influencing the utilization of an energy source (D-glucose) added in the cell suspension. The production of NADH per well was monitored using a colorimetric redox dye chemistry (Bochner et al. Assay of the multiple energy-producing pathways of mammalian cells. PLoS One 2011, 6(3):e18147). Before plating, cell viability and number were assessed utilizing a BioRad cell counter and a trypan blue dye.
(§5) The concentration of live cells required for plating was 4×10^5 cells/mL, corresponding to 20,000 cells per well in a volume of 50 μL. Only cell lines with viability of 55% or above were utilized for the experiments and, in order to minimize artifacts and biases due to prolonged cell culturing of transformed cells, LCLs were not been utilized if they had reached 15 passages. Cells were incubated for 48 h at 37° C. in 5% CO2, using the modified Biolog IF-M1 medium.
(§6) The Biolog IF-M1 medium was modified for plates PM-M1 by adding the following to 100 mL of Biolog IF-M1: 1.1 mL of 100× penicillin/streptomycin solution, 0.16 mL of 200 mM glutamine (final concentration 0.3 mM), and 5.3 mL of Fetal Bovine Serum (FBS, final concentration 5%). For plates PM-M6, 5.5 mM α-D-glucose was added instead of FBS.
(§7) After this first incubation, Biolog Redox Dye Mix MB was added (10 μL/well) and the plates were incubated under the same conditions for an additional 24 hours. As the cells metabolized the energy source, tetrazolium dye in the media was reduced, producing a purple color according to the amount of NADH generated.
(§8) For the last 24 hours of the experiment, plates were incubated in the Omnilog system, which collects optical density readings every 15 minutes, generating 96 data-points for each well. The system also elaborated the kinetic curve for the metabolic reaction in each well and extrapolated parameters such as slope, highest point, endpoint, area under the curve (AUC), and lag. The system performed parametric analysis by comparing kinetic curves of cases versus controls, both as individual sample or as cohorts.
(§9) At the end of the 24-hour incubation, plates were analyzed utilizing a microplate reader with readings at 590 and 750 nm. The first value (A590) indicated the highest absorbance peak of the redox dye and the second value (A750) gave a measure of the background noise. The relative absorbance (A590-750) was calculated per well.
(§10) Metabolic profiles of the same cell lines were then assessed after stimulation of the Nrf2 signaling pathway aiming to reproduce in control and Non-Ph1 cells the activation of the hub that occurs constitutively in ASD Ph1. In order to achieve the stimulation of the Nrf2 pathway, the cells were exposed to sulforaphane.

[2] = test system: control lymphoblastoid cell lines (LCLs); test: as above; format: cell-based, human; settings: for energy production capacity: in presence of D-Glucose
Description: as §1, §2, §3, §4, §5, §6, §7, §8, §9, §10

[3] = test system: ASD Phenotype 1 lymphoblastoid cell lines (LCLs); test: as above; format: cell-based, human
Description: as §1, §2, §3, §4, §5, §6, §7, §8, §9, §10

core symptoms of ASD = settings: ASD patients treated in Singh et al.; cited from earlier work
ASD Phenotype 1 patients = settings: short oral treatment, described in EP 17200185.1; cited from earlier work
[4] = Singh K et al., PNAS 2014; cited from earlier work

SMILES	energy production capacity after pretreatment with sulforaphane (Nrf2 activation) ([1]; ASD non-Ph1 LCLs, in presence of glucose)	energy production capacity [1]	energy production capacity ([2]; control LCLs)	energy production capacity after pretreatment with sulforaphane (Nrf2 activation) ([2]; control LCLs, in presence of glucose, addition of dibutyryl cAMP)	energy production capacity ([3]; Phenotype 1 cells, in the presence of D-Glucose, increasing concentrations)	core symptoms of ASD (as measured by the ADOS 2) (core symptoms of ASD)	behavioral response (ADI-r SI, ADI-r C or ADI-r RI) (ASD Phenotype 1 patients)	tolerability of administration to humans [4]	toxicity [4]	metabolic profile (PCA of energy production capacity) ([1]; ASD non-Phenotype 1 cells exposed to sulforaphane, various carbon sources of energy)	metabolic profile (PCA of energy production capacity) ([2]; control cells exposed to sulforaphane, various carbon sources of energy)	effect on the dibutyryl cAMP-induced increase of energy production capacity ([3]; ASD Ph1 cells, D-Glucose, treated with sulforaphane)	effect on energy production capacity ([3]; ASD Phenotype 1 cell lines, various carbon sources of energy (FIG. 1, FIG. 2: D-Glucose, maltose), exposed to sulforaphane)
CCCC(=O)Nc1ncnc2c1ncn2[C@@H]1O[C@@H]2COP(=O)(O)O[C@H]2[C@H]1OC(=O)CCC [dibutyryl cAMP, dibutyril-cyclic adenosine monophosphate]	restituted	no effect	no effect	restituted	increased	–	–	–	–	–	–	–	–
C[S@@+]([O-])CCCCN=C=S [sulforaphane, 1-isothiocyanato-4R-(methylsulfinyl)butane]	–	produced a decrease	produced a decrease	–	–	significant improvements	negative behavioral response	well tolerated	low toxicity	comparable to Ph1 cells at baseline	comparable to Ph1 cells at baseline	did not modify the response to dibutyryl cAMP	lack of effect
